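Here, GI50 denotes the concentration required for 50% inhibition of growth. TGI marks complete inhibition of growth.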
Tests used:
Experiment in all cases: DTP human tumour cell line panel, 384-well format
SK-MEL-2 melanoma = test system: SK-MEL-2 melanoma
SK-MEL-5 melanoma = test system: SK-MEL-5 melanoma
U251 glioblastoma = test system: U251 glioblastoma
HCT-15 colon = test system: HCT-15 colon
OVCAR-4 ovarian = test system: OVCAR-4 ovarian
786-0 renal = test system: 786-0 renal
DU-145 prostate = test system: DU-145 prostate
RXF 393 renal = test system: RXF 393 renal
M14 melanoma = test system: M14 melanoma
SF-539 CNS = test system: SF-539 CNS
SK-OV-3 ovarian = test system: SK-OV-3 ovarian
A498 renal = test system: A498 renal
MDA-MB-435 melanoma = test system: MDA-MB-435 melanoma
MDA-MB-231 breast = test system: MDA-MB-231 breast
SR leukemia = test system: SR leukemia
SK-MEL-28 melanoma = test system: SK-MEL-28 melanoma
NCI-H460 NSCLC = test system: NCI-H460 NSCLC
NCI/ADR-RES ovarian = test system: NCI/ADR-RES ovarian
OVCAR-5 ovarian = test system: OVCAR-5 ovarian
RPMI-8226 leukemia = test system: RPMI-8226 leukemia
CAKI-1 renal = test system: CAKI-1 renal
T-47D breast = test system: T-47D breast
HS 578T breast = test system: HS 578T breast
OVCAR-3 ovarian = test system: OVCAR-3 ovarian
KM12 colon = test system: KM12 colon
HCC-2998 colon = test system: HCC-2998 colon
HCT-116 colon = test system: HCT-116 colon
MOLT-4 leukemia = test system: MOLT-4 leukemia
BT-549 breast = test system: BT-549 breast
LOX IMVI melanoma = test system: LOX IMVI melanoma
SW-620 colon = test system: SW-620 colon
SF-295 CNS = test system: SF-295 CNS
SN12C renal = test system: SN12C renal
NCI-H226 lung = test system: NCI-H226 lung
NCI-H522 lung = test system: NCI-H522 lung
UO-31 renal = test system: UO-31 renal
NCI-H23 lung = test system: NCI-H23 lung
ACHN renal = test system: ACHN renal
HOP-62 NSCLC = test system: HOP-62 NSCLC
UACC-62 melanoma = test system: UACC-62 melanoma
SNB-19 CNS = test system: SNB-19 CNS
HOP-92 NSCLC = test system: HOP-92 NSCLC
PC-3 prostate = test system: PC-3 prostate
TK-10 renal = test system: TK-10 renal
MALME-3M melanoma = test system: MALME-3M melanoma
EKVX NSCLC = test system: EKVX NSCLC
K-562 leukemia = test system: K-562 leukemia

## Cc1cc(Nc2ncc(Cl)c(Nc3ccccc3S(=O)(=O)C(C)C)n2)c(OC(C)C)cc1C1CCNCC1
SK-MEL-2 melanoma
  GI50: 1020 nM
  TGI: 2190 nM
SK-MEL-5 melanoma
  GI50: 668 nM
  TGI: 1280 nM
U251 glioblastoma
  GI50: 1780 nM
  TGI: 3.19 µM
HCT-15 colon
  GI50: 648 nM
  TGI: 1760 nM
OVCAR-4 ovarian
  GI50: 1990 nM
  TGI: 3.42 µM
786-0 renal
  GI50: 1260 nM
  TGI: 2520 nM
DU-145 prostate
  GI50: 1560 nM
  TGI: 2920 nM
RXF 393 renal
  GI50: 1900 nM
  TGI: 3.31 µM
M14 melanoma
  GI50: 1270 nM
  TGI: 2550 nM
SF-539 CNS
  GI50: 1870 nM
  TGI: 3.29 µM
SK-OV-3 ovarian
  GI50: 1750 nM
  TGI: 3.16 µM
A498 renal
  GI50: 1620 nM
  TGI: 2990 nM
MDA-MB-435 melanoma
  GI50: 1270 nM
  TGI: 2550 nM
MDA-MB-231 breast
  GI50: 1480 nM
  TGI: 2810 nM
SR leukemia
  GI50: 13.9 nM
  TGI: 26.1 nM
SK-MEL-28 melanoma
  GI50: 1540 nM
  TGI: 2880 nM
NCI-H460 NSCLC
  GI50: 1080 nM
  TGI: 2370 nM
NCI/ADR-RES ovarian
  GI50: 1540 nM
  TGI: 2890 nM
OVCAR-5 ovarian
  GI50: 1510 nM
  TGI: 2850 nM
RPMI-8226 leukemia
  GI50: 720 nM
  TGI: 1980 nM
CAKI-1 renal
  GI50: 1750 nM
  TGI: 3.14 µM
T-47D breast
  GI50: 1400 nM
  TGI: 2710 nM
HS 578T breast
  GI50: 1640 nM
  TGI: 3 µM
OVCAR-3 ovarian
  GI50: 1590 nM
  TGI: 2960 nM
KM12 colon
  GI50: 1450 nM
  TGI: 2780 nM
HCC-2998 colon
  GI50: 202 nM
  TGI: 552 nM
HCT-116 colon
  GI50: 826 nM
  TGI: 2070 nM
MOLT-4 leukemia
  GI50: 711 nM
  TGI: 1980 nM
BT-549 breast
  GI50: 1880 nM
  TGI: 3.3 µM
LOX IMVI melanoma
  GI50: 1280 nM
  TGI: 2560 nM
SW-620 colon
  GI50: 1060 nM
  TGI: 2330 nM
SF-295 CNS
  GI50: 1700 nM
  TGI: 3.09 µM
SN12C renal
  GI50: 1750 nM
  TGI: 3.14 µM
NCI-H226 lung
  GI50: 929 nM
  TGI: 2240 nM
NCI-H522 lung
  GI50: 1760 nM
  TGI: 3.15 µM
UO-31 renal
  GI50: 1690 nM
  TGI: 3.07 µM
NCI-H23 lung
  GI50: 1270 nM
  TGI: 2550 nM
ACHN renal
  GI50: 1770 nM
  TGI: 3.17 µM
HOP-62 NSCLC
  GI50: 1710 nM
  TGI: 3.1 µM
UACC-62 melanoma
  GI50: 1040 nM
  TGI: 2320 nM
SNB-19 CNS
  GI50: 1830 nM
  TGI: 3.24 µM
HOP-92 NSCLC
  GI50: 1210 nM
  TGI: 2450 nM
PC-3 prostate
  GI50: 1390 nM
  TGI: 2710 nM
TK-10 renal
  GI50: 1570 nM
  TGI: 2920 nM
MALME-3M melanoma
  GI50: 551 nM
  TGI: 1720 nM
EKVX NSCLC
  GI50: 1290 nM
  TGI: 2570 nM
K-562 leukemia
  GI50: 978 nM
  TGI: 2150 nM
